Assay results taken from PubChem BioAssay (NCI).
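Cells were grown in 96-well plates and exposed to each compound for 48 hours at five concentrations; endpoints were interpolated linearly between bracketing concentrations, or set to the highest concentration if not reached. GI50 = concentration required for 50% inhibition of growth. TGI: concentration producing complete growth inhibition.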

What was measured:
Assay in all cases: NCI-60 cell line screen, 48 h
IGROV1 ovarian = tested on: IGROV1 ovarian
K-562 leukemia = tested on: K-562 leukemia
HCT-15 colon = tested on: HCT-15 colon
MDA-MB-231 breast = tested on: MDA-MB-231 breast
EKVX NSCLC = tested on: EKVX NSCLC
SF-539 CNS = tested on: SF-539 CNS
786-0 renal = tested on: 786-0 renal
RPMI-8226 leukemia = tested on: RPMI-8226 leukemia
SK-MEL-5 melanoma = tested on: SK-MEL-5 melanoma
KM12 colon = tested on: KM12 colon
HS 578T breast = tested on: HS 578T breast
HOP-92 NSCLC = tested on: HOP-92 NSCLC
T-47D breast = tested on: T-47D breast
NCI-H23 lung = tested on: NCI-H23 lung
MDA-MB-468 breast = tested on: MDA-MB-468 breast
HOP-62 NSCLC = tested on: HOP-62 NSCLC
SNB-75 CNS = tested on: SNB-75 CNS
SK-MEL-2 melanoma = tested on: SK-MEL-2 melanoma
UACC-257 melanoma = tested on: UACC-257 melanoma
HCT-116 colon = tested on: HCT-116 colon
LOX IMVI melanoma = tested on: LOX IMVI melanoma
MDA-MB-435 = tested on: MDA-MB-435
UACC-62 melanoma = tested on: UACC-62 melanoma
SNB-19 CNS = tested on: SNB-19 CNS
MALME-3M melanoma = tested on: MALME-3M melanoma
SN12C renal = tested on: SN12C renal
SK-MEL-28 melanoma = tested on: SK-MEL-28 melanoma
OVCAR-8 ovarian = tested on: OVCAR-8 ovarian
SF-295 CNS = tested on: SF-295 CNS
ACHN renal = tested on: ACHN renal
MCF7 breast = tested on: MCF7 breast
COLO 205 colon = tested on: COLO 205 colon
TK-10 renal = tested on: TK-10 renal
BT-549 breast = tested on: BT-549 breast
CCRF-CEM leukemia = tested on: CCRF-CEM leukemia
RXF 393 renal = tested on: RXF 393 renal
NCI-H522 lung = tested on: NCI-H522 lung
CAKI-1 renal = tested on: CAKI-1 renal
OVCAR-3 ovarian = tested on: OVCAR-3 ovarian
UO-31 renal = tested on: UO-31 renal
OVCAR-5 ovarian = tested on: OVCAR-5 ovarian
A498 renal = tested on: A498 renal
A549 NSCLC = tested on: A549 NSCLC
SK-OV-3 ovarian = tested on: SK-OV-3 ovarian
OVCAR-4 ovarian = tested on: OVCAR-4 ovarian
DU-145 prostate = tested on: DU-145 prostate
NCI-H226 lung = tested on: NCI-H226 lung
MOLT-4 leukemia = tested on: MOLT-4 leukemia
U251 CNS = tested on: U251 CNS
HT29 colon = tested on: HT29 colon
NCI-H460 lung = tested on: NCI-H460 lung
HCC-2998 colon = tested on: HCC-2998 colon
HL-60(TB) leukemia = tested on: HL-60(TB) leukemia
SF-268 CNS = tested on: SF-268 CNS
M14 melanoma = tested on: M14 melanoma
PC-3 prostate = tested on: PC-3 prostate
SR leukemia = tested on: SR leukemia
SW-620 colon = tested on: SW-620 colon

## C=C1CC[C@@H]2[C@]3(C)COC(c4cn[nH]c4-c4ccc(C)cc4)O[C@@H]3CC[C@@]2(C)[C@@H]1C/C=C1/C(=O)OCC1O (stereo partly specified)
IGROV1 ovarian
  GI50: 17.5 µM
  TGI: 39.7 µM
K-562 leukemia
  GI50: 5.55 µM
  TGI: > 100 µM
HCT-15 colon
  GI50: 10.1 µM
  TGI: 25.5 µM
MDA-MB-231 breast
  GI50: 19.2 µM
  TGI: 43.5 µM
EKVX NSCLC
  GI50: 18.2 µM
  TGI: 43.8 µM
SF-539 CNS
  GI50: 12.7 µM
  TGI: 25.3 µM
786-0 renal
  GI50: 16.7 µM
  TGI: 33.2 µM
RPMI-8226 leukemia
  GI50: 4.73 µM
  TGI: > 100 µM
SK-MEL-5 melanoma
  GI50: 12.6 µM
  TGI: 25.3 µM
KM12 colon
  GI50: 13.7 µM
  TGI: 35.8 µM
HS 578T breast
  GI50: 63.9 µM
  TGI: > 100 µM
HOP-92 NSCLC
  GI50: 17.8 µM
  TGI: 42.5 µM
T-47D breast
  GI50: 13.9 µM
  TGI: > 100 µM
NCI-H23 lung
  GI50: 14 µM
  TGI: 27 µM
MDA-MB-468 breast
  GI50: 6.94 µM
  TGI: 22.1 µM
HOP-62 NSCLC
  GI50: 21.7 µM
  TGI: 75.2 µM
SNB-75 CNS
  GI50: 20.6 µM
  TGI: > 100 µM
SK-MEL-2 melanoma
  GI50: 13.9 µM
  TGI: 30.4 µM
UACC-257 melanoma
  GI50: 15.2 µM
  TGI: 44.4 µM
HCT-116 colon
  GI50: 5.33 µM
  TGI: 20.6 µM
LOX IMVI melanoma
  GI50: 3.76 µM
  TGI: 15.7 µM
MDA-MB-435
  GI50: 7.38 µM
  TGI: 73.9 µM
UACC-62 melanoma
  GI50: 13.3 µM
  TGI: 27 µM
SNB-19 CNS
  GI50: 14.5 µM
  TGI: 27.6 µM
MALME-3M melanoma
  GI50: 15.8 µM
  TGI: 33.5 µM
SN12C renal
  GI50: 17.3 µM
  TGI: 42.8 µM
SK-MEL-28 melanoma
  GI50: 12.8 µM
  TGI: 27 µM
OVCAR-8 ovarian
  GI50: 9.29 µM
  TGI: > 100 µM
SF-295 CNS
  GI50: 18.2 µM
  TGI: 36.5 µM
ACHN renal
  GI50: 15.7 µM
  TGI: 36.3 µM
MCF7 breast
  GI50: 4.88 µM
  TGI: 19.4 µM
COLO 205 colon
  GI50: 15.5 µM
  TGI: 29.9 µM
TK-10 renal
  GI50: 22.5 µM
  TGI: 48.3 µM
BT-549 breast
  GI50: 11.1 µM
  TGI: 37.8 µM
CCRF-CEM leukemia
  GI50: 2850 nM
  TGI: > 100 µM
RXF 393 renal
  GI50: 12.5 µM
  TGI: 25 µM
NCI-H522 lung
  GI50: 7.01 µM
  TGI: 22.5 µM
CAKI-1 renal
  GI50: 12.5 µM
  TGI: > 100 µM
OVCAR-3 ovarian
  GI50: 3.39 µM
  TGI: 13.8 µM
UO-31 renal
  GI50: 12.5 µM
  TGI: 25.7 µM
OVCAR-5 ovarian
  GI50: 15.5 µM
  TGI: 32.6 µM
A498 renal
  GI50: 21 µM
  TGI: 37.2 µM
A549 NSCLC
  GI50: 26.4 µM
  TGI: > 100 µM
SK-OV-3 ovarian
  GI50: 26.5 µM
  TGI: 74.8 µM
OVCAR-4 ovarian
  GI50: 64.8 µM
  TGI: > 100 µM
DU-145 prostate
  GI50: 24.6 µM
  TGI: > 100 µM
NCI-H226 lung
  GI50: 17.8 µM
  TGI: 44.7 µM
MOLT-4 leukemia
  GI50: 5.14 µM
  TGI: > 100 µM
U251 CNS
  GI50: 11.9 µM
  TGI: 28.6 µM
HT29 colon
  GI50: 13.1 µM
  TGI: 45.8 µM
NCI-H460 lung
  GI50: 20 µM
  TGI: 46.9 µM
HCC-2998 colon
  GI50: 16.7 µM
  TGI: 30.4 µM
HL-60(TB) leukemia
  GI50: 3.38 µM
  TGI: 56.4 µM
SF-268 CNS
  GI50: 34.7 µM
  TGI: > 100 µM
M14 melanoma
  GI50: 12.6 µM
  TGI: 26.2 µM
PC-3 prostate
  GI50: 21.7 µM
  TGI: > 100 µM
SR leukemia
  GI50: 7.16 µM
  TGI: > 100 µM
SW-620 colon
  GI50: 4.6 µM
  TGI: 17.5 µM
